In EP3677259A1, “USE OF ARACHIDONYL TRIFLUOROMETHYL KETONE” (Mosaiques Diagnostics And Therapeutics AG, priority 2019, dated 2020):
Where two headings read alike, the source gives them in different places.

Columns and labels:
GVIA iPLA2 = target: T1, GVIA iPLA2 (Homo sapiens, UniProt O60733); settings: cited from earlier work
T1 sequence (O60733 1-806): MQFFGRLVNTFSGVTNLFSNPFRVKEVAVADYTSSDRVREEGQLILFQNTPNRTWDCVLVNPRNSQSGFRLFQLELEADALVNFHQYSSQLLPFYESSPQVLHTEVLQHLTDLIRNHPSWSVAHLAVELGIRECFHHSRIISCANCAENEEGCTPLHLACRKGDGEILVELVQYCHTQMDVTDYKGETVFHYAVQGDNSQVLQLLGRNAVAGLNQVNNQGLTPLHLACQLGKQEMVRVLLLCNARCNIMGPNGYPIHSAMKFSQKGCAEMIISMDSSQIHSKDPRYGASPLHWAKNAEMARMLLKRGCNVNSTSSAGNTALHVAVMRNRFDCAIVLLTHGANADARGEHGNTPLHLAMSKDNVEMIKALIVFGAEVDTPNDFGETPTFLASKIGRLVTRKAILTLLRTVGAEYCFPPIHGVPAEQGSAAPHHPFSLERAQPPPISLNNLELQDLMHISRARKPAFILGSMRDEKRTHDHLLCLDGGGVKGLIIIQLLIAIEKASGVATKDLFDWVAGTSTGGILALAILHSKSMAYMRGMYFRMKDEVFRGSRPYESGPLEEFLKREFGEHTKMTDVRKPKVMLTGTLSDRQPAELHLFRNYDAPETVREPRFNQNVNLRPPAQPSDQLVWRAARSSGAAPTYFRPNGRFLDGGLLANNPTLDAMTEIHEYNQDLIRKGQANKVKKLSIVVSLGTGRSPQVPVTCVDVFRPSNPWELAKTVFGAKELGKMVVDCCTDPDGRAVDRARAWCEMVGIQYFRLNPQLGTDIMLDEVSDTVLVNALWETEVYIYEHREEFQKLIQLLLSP

GV sPLA2 = target: T2, GV sPLA2 (Homo sapiens, UniProt P39877); settings: cited from earlier work
T2 sequence (P39877 21-138): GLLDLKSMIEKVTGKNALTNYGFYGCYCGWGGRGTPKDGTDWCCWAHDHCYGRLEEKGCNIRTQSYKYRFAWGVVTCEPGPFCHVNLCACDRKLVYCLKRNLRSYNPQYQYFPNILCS

GIVA cPLA2 = target: T3, GIVA cPLA2 (Homo sapiens, UniProt P47712); settings: cited from earlier work
T3 sequence (P47712 1-749): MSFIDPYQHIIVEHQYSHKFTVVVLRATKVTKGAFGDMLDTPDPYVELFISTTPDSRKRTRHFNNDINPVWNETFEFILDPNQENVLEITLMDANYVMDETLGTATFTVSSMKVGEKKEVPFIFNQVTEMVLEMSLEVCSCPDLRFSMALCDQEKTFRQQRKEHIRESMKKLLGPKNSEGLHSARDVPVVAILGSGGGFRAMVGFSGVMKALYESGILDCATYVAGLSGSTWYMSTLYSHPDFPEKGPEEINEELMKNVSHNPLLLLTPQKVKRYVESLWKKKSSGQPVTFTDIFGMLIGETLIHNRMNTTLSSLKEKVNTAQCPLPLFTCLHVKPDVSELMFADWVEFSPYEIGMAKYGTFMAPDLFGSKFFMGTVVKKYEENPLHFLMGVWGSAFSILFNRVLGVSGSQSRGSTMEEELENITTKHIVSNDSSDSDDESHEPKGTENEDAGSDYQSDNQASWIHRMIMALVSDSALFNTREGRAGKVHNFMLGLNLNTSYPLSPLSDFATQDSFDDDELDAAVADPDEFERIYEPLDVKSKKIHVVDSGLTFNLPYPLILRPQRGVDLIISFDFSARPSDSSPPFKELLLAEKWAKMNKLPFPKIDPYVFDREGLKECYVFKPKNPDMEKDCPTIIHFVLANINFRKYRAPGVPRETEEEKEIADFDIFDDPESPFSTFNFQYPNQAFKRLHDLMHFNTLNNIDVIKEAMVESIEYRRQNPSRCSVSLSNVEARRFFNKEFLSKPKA

HAoSMCs = experiment: Relative mRNA expression of osteogenic markers MSX2, CBFA1, ALPL in HAoSMCs; format: cell-based, human; settings: 10 µM arachidonic acid, 24 hours, vs. control
Procedure: Primary HAoSMCs were cultured in Waymouth's MB 752/1 medium and Ham's F-12 nutrient mixture (1:1, Gibco, Life Technologies) supplemented with 10% FBS (Gibco, Life Technologies) and 100 U/ml penicillin and 100 μg/ml streptomycin. HAoSMCs were grown to confluency and used in all experiments from passages 4 to 10. Calcification was induced with 3 mM sodium phosphate buffer as calcification medium. Treatment was performed over a period of 11 days. Figs. 1C-E are diagrams indicating relative mRNA expression in HAoSMCs of MSX2 (Fig. 1C), CBFA1 (Fig. 1D) and ALPL (Fig. 1E) as scatter dot plots and as arithmetic means ± SEM (n=6; arbitrary units, a.u.). mRNA expression was determined following treatment of the HAoSMCs for 24 hours with control or with 2 mM β-glycerophosphate (Pi) without or with additional treatment with 10 μM AACOCF3. **(p<0.01), ***(p<0.001) statistically significant vs. control treated […]<0.001) statistically significant vs. HAoSMCs treated with Pi alone. […] Conditions were as above (for Fig 2), namely primary HAoSMCs were cultured in Waymouth's MB 752/1 medium and Ham's F-12 nutrient mixture (1:1, Gibco, Life Technologies) supplemented with 10% FBS (Gibco, Life Technologies) and 100 U/ml penicillin and 100 μg/ml streptomycin. HAoSMCs were grown to confluency and used in all experiments from passages 4 to 10. […]

human platelets = settings: read-out: IC50, arachidonic acid mobilization, cited from earlier work
[1] = system: Ca2+-independent group VI iPLA2; settings: cited from earlier work

Compound | GVIA iPLA2 % Inhibition (GVIA iPLA2) | GV sPLA2 % Inhibition (GV sPLA2) | GIVA cPLA2 % Inhibition (GIVA cPLA2) | GIVA cPLA2 X1(50) (GIVA cPLA2) | further results
CCCCCCCCCCCCCCC(=O)C(=O)O [12e] | <25% | <25% |  |  | 
CC(C)(C)OC(=O)CCCOC(=O)C(=O)CCCCc1ccccc1 [16c] | <25% | <25% | <25% |  | 
O=C(O)CCCOC(=O)C(=O)CCCCc1ccc(-c2ccccc2)cc1 [17d] | <25% | <25% | >95% | 0.00068 ± 0.00007 | 
O=C(O)CCCCOC(=O)C(=O)CCCCc1ccc(-c2ccccc2)cc1 [17f] |  | <25% | > 95% | 0.000078 ± 0.00001 | 
O=C(O)CCCOC(=O)C(=O)CCCc1ccc(-c2ccccc2)cc1 [17g] |  | <25% | > 95% | 0.0065 ± 0.002 | 
CCCCC/C=C\C/C=C\C/C=C\C/C=C\CCCC(=O)O [Arachidonic acid, arachidonic acid] |  |  |  |  | osteoinductive signaling (MSX2, CBFA1, ALPL relative mRNA expression) (HAoSMCs): induces osteoinductive signaling
CCCCCCCCCCOc1ccc(OCC(=O)Cn2cc(C(=O)OC)c3cc(C(=O)O)ccc32)cc1 [CAY10502, 1-[3-(4-decoxyphenoxy)-2-oxopropyl]-3-methoxycarbonylindole-5-carboxylic acid] |  |  |  |  | IC50 (human platelets; A23187-stimulated human platelets): 570 nM; IC50 (human platelets; TPA-stimulated human platelets): 0.9 nM
CCOC(=O)CCCOC(=O)C(=O)CCCCc1ccccc1 [compound 19] | <25% | <25% |  |  | 
CCCCCCCCCCCCCCC(O)C(=O)OCCCC(=O)O (centres unmarked) [compound 20] | <25% |  | <25% |  | 
Palmityl trifluoromethylketone [PACOCF3] |  |  |  |  | IC50 [1]: 3800 nM
